Measured values taken from patent publication US20100292292A1, “Treatment of Neurodegenerative Diseases Using Indatraline Analogs” (LINK MEDICINE CORPORATION, priority 2007, published 2010).
“Also recorded” adds a separate entry of the source.

What was measured:
[1] = target: T1, purified recombinant human α-synuclein (Homo sapiens, UniProt P37840); experiment: α-synuclein structure formation/aggregation in the presence of HFIP (Thioflavin T fluorescence, fluorescence polarization); type: binding; settings: α-synuclein 20 μM, 25 mM Tris pH 8.0, 3.1% HFIP, room temperature, compound 50-400 μM, Thioflavin T fluorescence and/or fluorescence polarization
Description: HFIP induces rapid structure formation and aggregation of α-synuclein (Munishkina et al., Biochemistry 42:2720-30, 2003; Maiti, Apetri et al., J Am Chem Soc, 126:2399-408, 2004; each of which is incorporated herein by reference). Compounds were incubated with purified recombinant human α-synuclein (20 μM) in a buffer containing HFIP (25 mM Tris, pH 8.0, 3.1% HFIP) at room temperature. Structure formation was monitored by Thioflavin T fluorescence and fluorescence polarization. Thioflavin T fluorescence can be used to measure aggregation of amyloidogenic proteins, including α-synuclein (excitation, 440 nm; emission, 495 nm) (Naiki et al., Anal. Biochem., 177:244-9, 1989; Conway et al., Biochemistry, 39:2552-63, 2000; each of which is incorporated herein by reference). Average molecular size was monitored by fluorescence polarization using human α-synuclein covalently conjugated to Alexa Fluor 594 (excitation, 546 nm; emission, 620 nm). Assays were performed in a 384-well plate and readings taken directly from each well over time.

[2] = target: T1, purified recombinant human α-synuclein; experiment: α-synuclein aggregation in aqueous solution (Thioflavin T fluorescence, fluorescence polarization); type: biochemical; settings: α-synuclein 70 μM, 20 mM Bis-tris propane pH 7.4, 100 mM LiCl, 37° C., gentle agitation, Thioflavin T fluorescence and/or fluorescence polarization
Description: Compounds were incubated with purified recombinant human α-synuclein (70 μM) in an aqueous buffer system (20 mM Bis-tris propane, pH 7.4, 100 mM LiCl) at 37° C. with gentle agitation. Structure formation was monitored by Thioflavin T fluorescence and/or fluorescence polarization. Thioflavin T fluorescence can be used to measure aggregation of amyloidogenic proteins, including α-synuclein (excitation, 440 nm; emission, 495 nm) (Naiki, H.; Higuchi, K.; Hosokawa, M.; Takeda, T., Fluorometric determination of amyloid fibrils in vitro using the fluorescent dye, thioflavin T1. Anal Biochem 1989, 177, (2), 244-9; incorporated herein by reference). Average molecular size was monitored by fluorescence polarization using human α-synuclein covalently conjugated to Alexa Fluor 594 (excitation, 546 nm; emission, 620 nm) (Luk, K. C.; Hyde, E. G.; Trojanowski, J. Q.; Lee, V. M., Sensitive fluorescence polarization technique for rapid screening of alpha-synuclein oligomerization/fibrillization inhibitors. Biochemistry 2007, 46, (44), 12522-9; incorporated herein by reference).

[3] = test system: α-synuclein-induced retinal degeneration in transgenic Drosophila (human A30P α-synuclein); experiment: Drosophila retinal assay; type: in vivo; settings: transgenic Drosophila expressing human A30P α-synuclein in retina, drug in food
Excerpt: Human A30P α-synuclein expression was directed to the retina with the glass multimer reporter (GMR) promoter. The transgene induces progressive retinal degeneration. Dry food (Formula 4-24; Carolina Biological Supply) was rehydrated with water or an aqueous solution of drug. Drug concentration refers to the final concentration of compound in the aqueous solution. Transgenic female flies less than 12-hours-old were placed on either untreated or drug-embedded food. For analysis of retinal degeneration, fly heads were annealed to a glass microscope, then eyes were transilluminated following optical neutralization of the corneas with immersion oil and examined under a 100× lens (Franceschini, N., Pupil and pseudopupil in the compound eye of Drosophila. In Information processing in the visual system of Drosophila, Wehner, R., Ed. Springer: Berlin, 1972; pp 75-82; incorporated here in by reference). For quantitation, 20-50 ommatidia per eye of at least 12 eyes were examined per group. The percent normal ommatidia was calculated for each eye and averaged for each sample set. Indatraline suppressed α-synuclein-induced retinal degeneration (FIG. 26A).

[4] = test system: dopaminergic neurons (primary rat embryonic midbrain culture) infected with lentivirus encoding human A53T α-synuclein; experiment: Primary neuronal toxicity assay; type: cell-based; settings: for decrease of α-synuclein neurotoxicity in dopaminergic neurons (TH+ cells): E17 rat midbrain culture, A53T α-synuclein lentivirus, 3 days treatment
Excerpt: Indatraline decreased α-synuclein neurotoxicity in dopaminergic neurons. Midbrain cultures will be prepared from E17 rat ventral mesencephalon as described in a published protocol (Xu, J.; Kao, S. Y.; Lee, F. J.; Song, W.; Jin, L. W.; Yankner, B. A., Dopamine-dependent neurotoxicity of alpha-synuclein: a mechanism for selective neurodegeneration in Parkinson disease. Nat Med 2002, 8, (6), 600-6; incorporated herein by reference). Cultured cells were infected with a recombinant lentivirus encoding human A53T α-synuclein (A53T) or a control virus (none). Cells were treated with various concentrations of indatraline (black bars) for 3 days. Cells were then fixed and immunostained for Microtubule-associated protein 2, which stains all neurons, and Tyrosine Hydroxylase, a marker for dopaminergic neurons. Toxicity of A53T α-synuclein toward dopaminergic neurons was determined by calculating the percentage neurons positive for tyrosine hydroxylase (TH^+ cells).

alpha-synuclein = alpha-synuclein (Homo sapiens, UniProt P37840); experiment: Solution NMR binding studies
Excerpt: Importantly, stabilization of such off-pathway conformers can reduce the rate of α-synuclein fibrillization. For instance, sequence changes that promote formation of helical conformers also reduce the rate of α-synuclein fibrillization. A novel screen was devised to identify small molecules capable of promoting off-pathway conformers of α-synuclein. A screen of 640 central nervous system (CNS-active) compounds, including many approved CNS drugs, identified an active compound, indatraline (INDAT), a monoamine reuptake inhibitor that has been widely used as a research tool.

CN[C@@H]1C[C@@H](c2ccc(Cl)c(Cl)c2)c2ccccc21 [Indatraline, indatraline]
binding to α-synuclein and effect on the rate of structure formation/aggregation in the presence of HFIP [1]: bind to α-synuclein and affect the rate of protein aggregation
binding to α-synuclein and effect on the rate of structure formation/aggregation in the presence of HFIP ([1]; listed as indatraline): binds to α-synuclein and affects the rate of structure formation
delay of α-synuclein aggregation in aqueous solution [2]: delay the initiation of α-synuclein aggregation
delay of α-synuclein aggregation in aqueous solution ([2]; listed as indatraline): reduced the rate of alpha-synuclein fibrillization (and nucleation); also recorded: delays aggregation of α-synuclein in a dose-dependent manner
suppression of α-synuclein-induced retinal degeneration (percent normal ommatidia) [3]: suppresses α-synuclein-induced retinal degeneration; also recorded: decreases α-synuclein-mediated retinal degeneration
suppression of α-synuclein-induced retinal degeneration (percent normal ommatidia) ([3]; listed as indatraline): reduced the toxicity of alpha-synuclein; also recorded: suppress α-synuclein-induced retinal degeneration
decrease of α-synuclein neurotoxicity in dopaminergic neurons (TH+ cells) [4]: diminished toxicity of A53T α-synuclein toward dopaminergic neurons in a dose-dependent manner; also recorded: decreases α-synuclein neurotoxicity
decrease of α-synuclein neurotoxicity in dopaminergic neurons (TH+ cells) ([4]; listed as indatraline): reduced the toxicity of alpha-synuclein; also recorded: decrease α-synuclein neurotoxicity
IC50 ([4]; Neuron, primary rat embryonic midbrain culture, FIG. 26B, read-out: IC50, reduction of alpha-synuclein toxicity in dopaminergic neurons): ~500 nM
binding site on alpha-synuclein by solution NMR (alpha-synuclein): binds at a sequence near the C-terminus of alpha-synuclein

CN(C)C1CC(Cc2ccc(Cl)c(Cl)c2)c2ccccc21 (stereo not drawn) [LNK-122]
binding to α-synuclein and effect on the rate of structure formation/aggregation in the presence of HFIP [1]: binds to α-synuclein and affects the rate of structure formation; also recorded: bind to α-synuclein and affect the rate of protein aggregation

c1ccc(CNCC2CC(c3ccccc3)c3ccccc32)cc1 (stereo not drawn) [LNK-1521]
binding to α-synuclein and effect on the rate of structure formation/aggregation in the presence of HFIP [1]: bind to α-synuclein and affect the rate of protein aggregation
